For 13 compounds, Kd and EC50 results are on record in patent US11427601B1, “Inhibitors of KEAP1-Nrf2 protein-protein interaction” (Janssen Pharmaceutica NV, priority 2018, dated 2022).

Assay [1] addresses Kelch domain of human KEAP 1 (321-624 aa) (Homo sapiens (Human), UniProt Q14145). In words: KEAP1 KELCH ThermoFluor binding assay. To be noted: KEAP Kelch 1.1 μM, pH 7.0, average of results obtained, read-out: Tf Kd.
Source text: The shift in the melting point described as a ΔTm is proportional to the concentration and affinity of the ligand. The compound potency may be compared as a rank order of either ΔTm values at a single compound concentration or in terms of KD values, estimated from concentration response curves.
The protein was expressed in E. coli with 6His tag that was cleaved prior to receipt for use.
Protein (KEAP Kelch) and compound solutions were dispensed into black 384-well polypropylene PCR microplates (Abgene) and overlayed with silicone oil (1 μL, Fluka, type DC 200) to prevent evaporation.
In assay [2] the test system is NrF2 activation of the ARE (Glo-Response ARE-luc2P HEK293 cell line). The assay is described as follows: ARE luciferase reporter assay in HEK293 cells. In kind it is cell-based. To be noted: average of results obtained.
Procedure: The ARE assay utilizes a luciferase reporter cell line where the signal is proportional to NrF2 activation of the ARE. The cell line is commercially available from Promega and was prepared by stably transfecting HEK293 cells with a vector (pGL4.11) which contains the ARE response element upstream of a minimal promoter. The promoter drives expression of luc2 firefly luciferase gene. Upon disruption of KEAP1-Nrf2 binding by compound, Nrf2 translocates into the nucleus where it binds to the ARE and activates transcription of luciferase.
The materials used in this ARE assay are as follows: Glo-Response ARE-luc2P HEK293 cell line and One-Glo Luciferase Assay System were purchased from Promega (Madison, Wis.). Dulbecco's Modified Eagle medium ((DMEM), low glucose, GlutaMAX, pyruvate), fetal bovine serum (certified, heat inactivated), hygromycin B, Dulbecco's phosphate-buffered saline were purchased from Life Technologies (Grand Island, N.Y.). Penicillin, streptomycin solution (100×) and 0.05% trypsin-EDTA were purchased from Corning (Manassas, Va.). DMSO was purchased from EMD Millipore.
The ARE assay protocol is as follows: cells were maintained in growth medium (DMEM +10% FBS, 200 μg/mL hygromycin B, p-s) between 20-90% confluency by splitting twice per week. One day before the assay, cells were trypsinized, counted to determine viable cell count, and re-suspended in assay medium (DMEM +10% FBS, p-s) at 250,000 cells/mL. […] 100% DMSO was used as the low control. A 11-point dose series of the control compound was included on every plate. Compounds were spotted to an intermediate plate (Greiner # 781280 V-bottom 384 well plate) using the Echo acoustic dispenser (Labscyte San Jose, Calif.). Spot size was 240 nL.
On the day of the assay, 60 mL per well of assay medium was added to the pre-spotted plate to make 2X compound stocks using the Combi (Thermo Waltham, Mass.). Compound and medium were mixed on the Janus and 20 mL of 2× compound stock was added to the cell plate which already contained 20 mL of assay medium from cell plating. […] The plates were returned to the tissue culture incubator for 24 hours.
The next day, luciferase activity was measured according to the manufacturer's protocol for One-Glo luciferase reagent. The plates were removed from the incubator and allowed to equilibrate to room temperature for 30 min. Forty microliters of One-Glo reagent (equilibrated to room temperature) was added per well using the Combi. The plates were mixed on an orbital shaker for 3 min. Luminescence was read on the BMG Pherastar multiplate reader (Cary, N.C.) using the luminescence protocol (1 sec interval).
The dose-response data were analyzed in Genedata Screener using 4PL nonlinear regression model. Raw luminescence counts as well as normalized values were used for data analysis.

Kelch domain of human KEAP 1 (321-624 aa), sequence (Q14145 321-624): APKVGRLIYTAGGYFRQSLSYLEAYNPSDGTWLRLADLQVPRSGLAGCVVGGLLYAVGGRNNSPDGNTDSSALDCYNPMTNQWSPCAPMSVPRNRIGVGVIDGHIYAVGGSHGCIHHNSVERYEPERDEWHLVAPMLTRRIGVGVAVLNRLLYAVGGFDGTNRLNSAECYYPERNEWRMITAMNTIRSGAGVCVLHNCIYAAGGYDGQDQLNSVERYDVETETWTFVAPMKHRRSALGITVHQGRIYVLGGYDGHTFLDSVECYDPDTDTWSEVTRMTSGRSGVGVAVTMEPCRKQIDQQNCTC

Regarding `CCn1nnc2c(C)c(C(CC(=O)O)c3ccc(C)c(CN4CC5(COC5)Oc5ccccc5S4(=O)=O)n3)ccc21` (racemic) [Example 237, (R/S)-3-(6-((1,1-Dioxidospiro[benzo[b][1,4,5]oxathiazepine-4,3′-oxetan]-2(3H)-yl)methyl)-5-methylpyridin-2-yl)-3-(1-ethyl-4-methyl-1H-benzo[d][1,2,3]triazol-5-yl)propanoic acid], in assay [1], the dissociation constant Kd amounted to 1.5 nM. Compound `Cc1ccc([C@H](c2cc(C)n3c(C(F)(F)F)nnc3c2C)C(C)C(=O)O)cc1CN1C[C@@H]2CCCCN2c2ncccc2S1(=O)=O` (relative stereo) [Example 133, (3*R)-3-(5,8-Dimethyl-3)-(trifluoromethyl)-[1,2,4-triazolo[4,3-a]pyridine-7-yl)-3-(3-((*S)-5,5-dioxido-7,7a,8,9,10,11-hexahydro-6H-dipyrido[2,1-d:2′,3′-f][1,2,5]thiadiazepin-6-yl)methyl)-4-methylphenyl)-2-methylpropanoic acid] registered an EC50 in assay [2] (Homo sapiens, HEK293, 24 h) of 2 nM.

As for `Cc1ccc([C@H](CC(=O)O)c2ccc3c(nnn3CC3CC3)c2C(F)F)cc1CN1C[C@@H]2CCCCN2c2ncccc2S1(=O)=O` (relative stereo) [Example 172, (*S)-3-(1-(Cyclopropylmethyl)-4-(difluoromethyl)-1H-benzo[d][1,2,3]triazol-5-yl)-3-(3-(((*S)-5,5-dioxido-7,7a,8,9,10,11-hexahydro-6H-dipyrido[2,1-d:2′,3′-f][1,2,5]thiadiazepin-6-yl)methyl)-4-methylphenyl)propanoic acid], the 50% effective concentration (EC50) in assay [2] (24 hours) amounted to 19 nM. In other words, the double-digit nanomolar range. In assay [2] (24 hours), `CCc1nnc2c(C)c([C@H](CC(=O)O)c3ccc(C)c(CN4C[C@H]5CCCN5c5ncccc5S4(=O)=O)c3)ccn12` (relative stereo) [Example 283, (*R)-3-(3-(((R)-5,5-dioxido-7a,8,9,10-tetrahydropyrido[2,3-f]pyrrolo[2,1-d][1,2,5]thiadiazepin-6(7H)-yl)methyl)-4-methylphenyl)-3-(3-ethyl-8-methyl-[1,2,4]triazolo[4,3-a]pyridin-7-yl)propanoic acid] came in with a concentration giving a half-maximal response (EC50) of 4170 nM. This EC50 is about 220-fold higher than that of the compound before. `Cc1cnc2c(c1)S(=O)(=O)N(Cc1cc([C@H](CC(=O)O)c3ccn4c(C(F)(F)F)nnc4c3C)ccc1C)C[C@@H]1CCCCN21` (relative stereo) [Example 307, (*S)-3-(4-methyl-3-(((*S)-3-methyl-5,5-dioxido-7,7a,8,9,10,11-hexahydro-6H-dipyrido[2,1-d:2′,3′-f][1,2,5]thiadiazepin-6-yl)methyl)phenyl)-3-(8-methyl-3-(trifluoromethyl)-[1,2,4]triazolo[4,3-a]pyridin-7-yl)propanoic acid] had a concentration giving a half-maximal response (EC50) in assay [2] (24 hours) of 2 nM. Turning to `Cc1ccc([C@H](c2ccc3c(nnn3C3CC3)c2C)C(C)(C)C(=O)O)cc1CN1CC2(CC2)Oc2nc(N[C@@H](C)CN3CCCCC3)c(C)cc2S1(=O)=O` (relative stereo) [Example 660, (*R)-3-(1-Cyclopropyl-4-methyl-1H-benzo[d][1,2,3]triazol-5-yl)-2,2-dimethyl-3-(4-methyl-3-((8′-methyl-1′,1′-dioxido-7′-(((S)-1-(piperidin-1-yl)propan-2-yl)amino)spiro[cyclopropane-1,4′-pyrido[2,3-b][1,4,5]oxathiazepin]-2′(3′H)-yl)methyl)phenyl)propanoic acid], the EC50 in assay [2] (24 hours) was 235 nM. `Cc1ccc([C@H](CC(=O)O)c2ccn3c(C(F)(F)F)nnc3c2C)cc1CN1CC2(COC2)Oc2ccc(F)cc2S1(=O)=O` (single isomer, unassigned) [Example 99] had an EC50 in assay [2] (24 hours) of 5.8 nM. Consider `Cc1ccc([C@H](CC(=O)O)c2cc(OC(F)F)c3c(c2)nnn3C)cc1CN1C[C@H]2CCCN2c2ncccc2S1(=O)=O` (single isomer, unassigned) [Example 247, (*S)-3-(7-(Difluoromethoxy)-1-methyl-1H-benzo[d][1,2,3]triazol-5-yl)-3-(3-(((R)-5,5-dioxido-7a,8,9,10-tetrahydropyrido[2,3-f]pyrrolo[2,1-d][1,2,5]thiadiazepin-6(7H)-yl)methyl)-4-methylphenyl)propanoic acid], for which it took 225 nM to reach a half-maximal effect in assay [2] (Homo sapiens, HEK293, 24 h) (EC50).

Compound `Cc1cnc2c(c1)S(=O)(=O)N(Cc1cc([C@H](c3ccn4c(C(F)(F)F)nnc4c3C)C(C)(C)C(=O)O)cnc1C)CC1(CC1)O2` (single isomer, unassigned) [Example 573, (*S)-2,2-Dimethyl-3-(8-methyl-3-(trifluoromethyl)-[1,2,4]triazolo[4,3-a]pyridin-7-yl)-3-(6-methyl-5-((8′-methyl-1′,1′-dioxidospiro[cyclopropane-1,4′-pyrido[2,3-b][1,4,5]oxathiazepin]-2′(3′H)-yl)methyl)pyridin-3-yl)propanoic acid] yielded an EC50 in assay [2] (Homo sapiens, HEK293, 24 h) of 321 nM. This EC50 and that of the compound before are within 1.5-fold of each other. The same measure, in the same setting: the figure for `Cc1cnc2c(c1)S(=O)(=O)N(Cc1cc(C(c3ccn4c(C(F)(F)F)nnc4c3C)C(C)(C)C(=O)O)cnc1C)CC1(CC1)O2` (single isomer, unassigned) [Example 574, (*R)-2,2-Dimethyl-3-(8-methyl-3-(trifluoromethyl)-[1,2,4]triazolo[4,3-a]pyridin-7-yl)-3-(6-methyl-5-((8′-methyl-1′,1′-dioxidospiro[cyclopropane-1,4′-pyrido[2,3-b][1,4,5]oxathiazepin]-2′(3′H)-yl)methyl)pyridin-3-yl)propanoic acid] is 14600 nM.

In the case of `Cc1ccc([C@@H](c2ccn3c(C(F)(F)F)nnc3c2C)C(C)(C)C(=O)O)cc1CN1CC2(CC2)Oc2nc(OCCN3CCCC3)ccc2S1(=O)=O` (single isomer, unassigned) [Example 598, (*S)-3-(3-((1′,1′-dioxido-7′-(2-(pyrrolidine-1-yl)ethoxy)spiro[cyclopropane-1,4′-pyrido[2,3-b][1,4,5]oxathiazepin]-2′(3′H)-yl)methyl)-4-methylphenyl)-2,2-dimethyl-3-(8-methyl-3-(trifluoromethyl)-[1,2,4]triazolo[4,3-a]pyridine-7-yl)propanoic acid], the EC50 in assay [2] (24 hours) came to 8.85 nM.

In the case of `Cc1ccc(C(c2ccn3c(C(F)(F)F)nnc3c2C)C(C)C(=O)O)cc1CN1C[C@@H]2CCCCN2c2ncccc2S1(=O)=O` (stereo in doubt) [Example 129, 3-(3-(((*S)-5,5-Dioxido-7,7a,8,9,10,11-hexahydro-6H-dipyrido[2,1-d:2′,3′-f][1,2,5]thiadiazepin-6-yl)methyl)-4-methylphenyl)-2-methyl-3-(8-methyl-3-(trifluoromethyl)-[1,2,4]triazolo[4,3-a]pyridine-7-yl)propanoic acid], the equilibrium dissociation constant (Kd) in assay [1] was under 1 nM. Besides, the half-maximal effective concentration (EC50) in assay [2] (Homo sapiens, HEK293, 24 h) was 6.8 nM.

In turn, “(*S)-3-(3-((7′-(3-((2-(2-aminoethoxy)ethyl)amino)-3-oxopropyl)-1′,1′-dioxido-2,3,5,6-tetrahydrospiro[pyran-4,4′-pyrido[2,3-b][1,4,5]oxathiazepin]-2′(3′H)-yl)methyl)-4-methylphenyl)-2,2-dimethyl-3-(8-methyl-3-(trifluoromethyl)-[1,2,4]triazolo[4,3-a]pyridin-7-yl)propanoic acid [Example 345]” displayed an EC50 in assay [2] (24 hours) of over 20 nM.
